Holding throughout (assay type): biochemical
The target in test [1] is T1, T. cruzi TryR (Trypanosoma cruzi, UniProt P28593). In words: DTNB-coupled TryR microplate assay, […] nm.
In test [2] the target is T1, T. cruzi TryR. Description: DTNB-coupled TryR assay, global fit of mode of inhibition.
The next test addresses T2, human GR (Homo sapiens, UniProt P00390).
T2 sequence (P00390 44-522): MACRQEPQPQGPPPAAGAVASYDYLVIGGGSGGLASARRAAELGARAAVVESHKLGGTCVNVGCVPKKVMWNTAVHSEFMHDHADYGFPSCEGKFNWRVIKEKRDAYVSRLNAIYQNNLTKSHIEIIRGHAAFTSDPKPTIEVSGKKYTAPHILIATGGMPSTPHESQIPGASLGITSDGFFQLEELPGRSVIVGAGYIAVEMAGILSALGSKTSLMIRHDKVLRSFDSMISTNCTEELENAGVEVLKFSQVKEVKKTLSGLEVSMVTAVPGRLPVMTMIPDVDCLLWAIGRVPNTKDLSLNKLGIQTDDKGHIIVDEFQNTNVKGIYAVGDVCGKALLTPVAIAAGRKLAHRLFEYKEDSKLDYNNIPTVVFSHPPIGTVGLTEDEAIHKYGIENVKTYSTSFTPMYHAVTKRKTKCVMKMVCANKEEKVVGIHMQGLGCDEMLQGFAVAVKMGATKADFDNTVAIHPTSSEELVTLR
In words: DTNB-coupled GR microplate assay, single concentration in duplicate. The following applies: read-out: % inhibition at 25 μM.

Counter-ions that a name gives are not always drawn. A value given as a limit tells only on which side of the number the result lay.

T1 sequence (P28593 whole entry): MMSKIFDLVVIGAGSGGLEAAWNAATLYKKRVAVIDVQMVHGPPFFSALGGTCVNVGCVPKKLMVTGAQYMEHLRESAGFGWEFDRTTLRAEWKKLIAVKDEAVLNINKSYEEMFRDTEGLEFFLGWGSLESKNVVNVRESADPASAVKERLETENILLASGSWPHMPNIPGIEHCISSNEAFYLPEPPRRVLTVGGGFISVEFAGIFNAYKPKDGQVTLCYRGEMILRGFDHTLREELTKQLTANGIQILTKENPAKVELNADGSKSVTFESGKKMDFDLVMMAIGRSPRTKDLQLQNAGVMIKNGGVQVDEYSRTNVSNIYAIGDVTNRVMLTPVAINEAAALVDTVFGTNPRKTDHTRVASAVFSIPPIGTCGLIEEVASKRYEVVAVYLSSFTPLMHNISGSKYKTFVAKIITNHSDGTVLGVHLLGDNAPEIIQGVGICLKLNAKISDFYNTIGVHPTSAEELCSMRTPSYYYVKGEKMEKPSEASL

Regarding `Clc1ccc(CN[C@@H]2C[C@@H](c3ccc(Cl)c(Cl)c3)c3ccccc32)cc1Cl` (relative stereo) [8ix, Trans-[3-(3,4-dichlorophenyl)indan-1-yl]-(3,4-dichlorobenzyl)amine], the IC50 on T. cruzi TryR [1] was 45.9 ± 4.2 µM.

For `CC(=O)N[C@@H]1C[C@@H](c2ccc(Cl)c(Cl)c2)c2ccccc21` (relative stereo) [8xiv, Trans-N-[3-(3,4-dichlorophenyl)indan-1-yl]acetamide], on T. cruzi TryR [1], the IC50 was > 200 µM.

Turning to `CC(C)CCN[C@@H]1C[C@@H](c2ccc(Cl)c(Cl)c2)c2ccccc21` (relative stereo) [8ii, Trans-[3-(3,4-dichlorophenyl)indan-1-yl]-(3-methylbutyl)amine hydrochloride], the IC50 against T. cruzi TryR [1] came out at 4.05 ± 0.39 µM. Moreover, the Ki at T. cruzi TryR [2] came to 3.5 ± 0.4 µM.

`COc1ccc(CN[C@@H]2C[C@@H](c3ccc(Cl)c(Cl)c3)c3ccccc32)cc1` (relative stereo) [8xi, Trans-[3-(3,4-dichlorophenyl)indan-1-yl]-(4-methoxybenzyl)amine] registered a half-maximal inhibitory concentration (IC50) at T. cruzi TryR [1] of 4.14 ± 0.41 µM.

In the case of `CN(C)c1ccc(CN[C@@H]2C[C@@H](c3ccc(Cl)c(Cl)c3)c3ccccc32)cc1` (relative stereo) [8xii, Trans-[3-(3,4-dichlorophenyl)indan-1-yl]-(4-dimethylaminobenzyl)amine], the half-maximal inhibitory concentration (IC50) on T. cruzi TryR [1] was determined as 7.38 ± 1.21 µM.

Regarding `Cc1ccc(S(=O)(=O)N[C@@H]2C[C@@H](c3ccc(Cl)c(Cl)c3)c3ccccc32)cc1` (relative stereo) [8xv, Trans-N-[3-(3,4-dichlorophenyl)indan-1-yl]-4-methylbenzenesulfonamide], the IC50 on T. cruzi TryR [1] was > 200 µM.

On to `Clc1ccc(C2CC(NCc3ccccc3)c3ccccc32)cc1Cl` (centres unmarked) [8vii], for which the half-inhibitory concentration (IC50) against T. cruzi TryR [1] was 8.04 ± 0.91 µM.

On T. cruzi TryR [1], `COc1ccc2c(c1)[C@H](NCCC(C)C)C[C@H]2c1ccc(C)cc1` (relative stereo) [8xix, Trans-[3-(4-methylphenyl)-6-methoxyindan-1-yl]-(3-methylbutyl)amine] yielded an IC50 of 32.9 ± 4.3 µM. This IC50 lies about 4.1-fold higher than the previous one.

`Cc1ccc(CN[C@@H]2C[C@@H](c3ccc(Cl)c(Cl)c3)c3ccccc32)cc1` (relative stereo) [8x, Trans-[3-(3,4-dichlorophenyl)indan-1-yl]-(4-methylbenzyl)amine] came in with an IC50 against T. cruzi TryR [1] of 13 ± 1.6 µM.

In turn, `COc1ccc2c(c1)[C@H](NCCC(C)C)C[C@H]2c1ccc(Br)c(Br)c1` (relative stereo) [8xvii, Trans-[3-(3,4-dibromophenyl)-6-methoxyindan-1-yl]-(3-methylbutyl)amine] showed an IC50 at T. cruzi TryR [1] of 3.15 ± 0.23 µM.

The molecule `COc1ccc2c(c1)[C@@H](NCc1ccccc1)C[C@@H]2c1ccc(Cl)c(Cl)c1` (relative stereo) [8xxi, Trans-benzyl-[3-(3,4-dichlorophenyl)-6-methoxyindan-1-yl]amine] registered an IC50 at T. cruzi TryR [1] of 3.07 ± 0.45 µM.

Take `COc1cccc(C2CC(NCCC(C)C)c3cc(OC)ccc32)c1` (centres unmarked) [8xx]: the IC50 at T. cruzi TryR [1] was 125 ± 17 µM. Compared with the last molecule, the IC50 is about 41-fold higher.

The molecule `COc1ccc2c(c1)[C@H](NCCC(C)C)C[C@H]2c1ccc(Cl)cc1` (relative stereo) [8xviii, Trans-[3-(4-chlorophenyl)-6-methoxyindan-1-yl]-(3-methylbutyl)amine] showed an IC50 at T. cruzi TryR [1] of 15.8 ± 1.6 µM. This IC50 lies about 7.9-fold lower than the previous one.

On to `CN[C@@H]1C[C@@H](c2ccc(Cl)c(Cl)c2)c2ccccc21` [compound 3, indatraline], for which the inhibition at 25 µM on human GR is < 12%.

Molecule `Clc1ccc([C@@H]2C[C@@H](N3CCOCC3)c3ccccc32)cc1Cl` (relative stereo) [8vi, Trans-4-[3-(3,4-dichlorophenyl)indan-1-yl]morpholine] came in with an IC50 on T. cruzi TryR [1] of 173 ± 56 µM.

`COc1ccc2c(c1)[C@H](NCCC(C)C)C[C@H]2c1ccc(Cl)c(Cl)c1` (relative stereo) [8xvi, Trans-[3-(3,4-dichlorophenyl)-6-methoxyindan-1-yl]-(3-methylbutyl)amine] returned an IC50 against T. cruzi TryR [1] of 2.23 ± 0.66 µM.

For orientation: IC50 means the concentration that inhibits the measured activity by half. High values mean lower potency, low ones higher potency. A word on the Ki: it is a dissociation constant, usually derived from enzyme kinetics or from competition with a known ligand. Low readings indicate a stronger hold on the target, high ones a looser hold on the target. As usually defined, the inhibition is the percentage by which the read-out fell short of the control.
